pIC50: −log10 of the molar value.
Target: T1, human dihydrofolate reductase (DHFR) (Homo sapiens, UniProt P00374)
T1 sequence (P00374 1-187): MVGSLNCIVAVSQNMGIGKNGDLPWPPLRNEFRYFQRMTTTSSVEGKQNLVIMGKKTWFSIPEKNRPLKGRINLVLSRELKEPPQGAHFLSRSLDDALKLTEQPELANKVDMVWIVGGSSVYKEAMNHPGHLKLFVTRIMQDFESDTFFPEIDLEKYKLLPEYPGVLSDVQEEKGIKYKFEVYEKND
Assay: Inhibition of human DHFR (spectrophotometric, decrease in absorbance at 340 nm)
Assay type: biochemical
Conditions: recombinant human DHFR 0.2 μg/mL, 0.1 mM dihydrofolate, 0.1 mM NADPH, pH 7.3, 37° C., 1% DMSO, triplicate
Experimental: The activity of multiple compounds as inhibitors of human dihydrofolate reductase (DHFR) was evaluated. The dry test compounds were dissolved in 100% DMSO at a concentration of 10 mM. For the test assays, the compounds were serially diluted in 100% DMSO and added to the assays so that the final concentration of DMSO in the assays was 1%.
The final assay conditions for the human DHFR assays were: […] KPO4 (pH7.3), 250 mM KCl, 0.1 mM dihydrofolate, 0.1 mM NADPH, 1% DMSO, and 0.2 μg/mL recombinant human DHFR. The final volume of the assay was 800 μL in a semi-micro cuvet.
A decrease in absorbance at 340 nm was monitored for three minutes in a Cary spectrophotometer at 37° C. The concentrations used for each compound across a range of 10,000 to 0.08 nM, depending on the expected level of activity. The assays were done in triplicate for each compound. […] A minimum of seven concentrations were used to generate a curve, and IC50 values were calculated using the Standard Curve Analysis of Sigma Plot Enzyme Kinetics software.

pIC50 | Structure (SMILES)
8.06 | Nc1nc(N)c2cc(CCc3ccc(C(=O)NCC[C@@H](O)C[C@@H](O)CC(=O)O)cc3)ccc2n1 [Inventive 1]
8.27 | C=C(CC(NC(=O)c1ccc(CCc2ccc3nc(N)nc(N)c3c2)cc1)C(=O)O)C(=O)O (stereo not drawn) [Comparative, 2-{4-[2-(2,4-diamino-quinazolin-6-yl)-ethyl]-benzoylamino}-4-methylidene-pentanedioic acid, reference compound]
6.17 | Nc1nc(N)c2cc(CCc3ccc(CNCC[C@@H](O)C[C@@H](O)CC(=O)O)cc3)ccc2n1 [Inventive 2]

— patent publication US8530653B2, “Enzyme inhibiting compounds” (Chelsea Therapeutics, Inc., priority 2009, dated 2013)
